Assay results published in ChEMBL document CHEMBL1909294, “Translating clinical findings into knowledge in drug safety evaluation--drug induced liver injury prediction system (DILIps)” (PLoS Comput Biol, 2011).

What was measured:
Hepatotoxicity [1] = system: Hepatotoxicity;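 as to HepSE Combined Scores: combined hepatic side effect score as listed in the training data of the Drug Induced Liver Injury Prediction System (DILIps)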;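 as to HepSE cholecystitis: Cholecystitis-related hepatic side effect score drawn from the DILIps (drug-induced liver injury prediction) training data set; call rule not given here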;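 as to HepSE elevated liver function tests: hepatic side effect score for raised liver function tests, as recorded in the DILIps training set used for predicting drug-induced liver injury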;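 as to HepSE hepatic necrosis: score of hepatic side effects for hepatic necrosis, drawn from the training data of DILIps, a prediction system for drug-induced liver injury; call rule not given here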;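 as to HepSE hepatomegaly: hepatic side effect score for hepatomegaly, taken from the training set of the DILIps drug-induced liver injury prediction system; call rule not given here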; as to HepSE liver disease: call rule not given here;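 as to HepSE liver fatty: hepatic side effect score for fatty liver, taken from the DILIps training set for predicting drug-induced liver injury; call rule not given here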
Hepatotoxicity [2] = system: Hepatotoxicity; remark: listed apart in the source;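 as to HepSE Combined Scores: combined hepatic side effect score as listed in the training data of the Drug Induced Liver Injury Prediction System (DILIps)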;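 as to HepSE cholecystitis: Cholecystitis-related hepatic side effect score drawn from the DILIps (drug-induced liver injury prediction) training data set; call rule not given here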;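 as to HepSE hepatic necrosis: score of hepatic side effects for hepatic necrosis, drawn from the training data of DILIps, a prediction system for drug-induced liver injury; call rule not given here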;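 as to HepSE hepatomegaly: hepatic side effect score for hepatomegaly, taken from the training set of the DILIps drug-induced liver injury prediction system; call rule not given here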; as to HepSE liver disease: call rule not given here;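 as to HepSE liver fatty: hepatic side effect score for fatty liver, taken from the DILIps training set for predicting drug-induced liver injury; call rule not given here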
Hepatotoxicity [3] = system: Hepatotoxicity; remark: listed apart in the source;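 as to HepSE Combined Scores: combined hepatic side effect score as listed in the training data of the Drug Induced Liver Injury Prediction System (DILIps)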;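 as to HepSE cholecystitis: Cholecystitis-related hepatic side effect score drawn from the DILIps (drug-induced liver injury prediction) training data set; call rule not given here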;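 as to HepSE hepatic necrosis: score of hepatic side effects for hepatic necrosis, drawn from the training data of DILIps, a prediction system for drug-induced liver injury; call rule not given here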;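 as to HepSE hepatomegaly: hepatic side effect score for hepatomegaly, taken from the training set of the DILIps drug-induced liver injury prediction system; call rule not given here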; as to HepSE liver disease: call rule not given here;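 as to HepSE liver fatty: hepatic side effect score for fatty liver, taken from the DILIps training set for predicting drug-induced liver injury; call rule not given here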
Hepatotoxicity [4] = system: Hepatotoxicity; remark: listed apart in the source;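 as to HepSE Combined Scores: combined hepatic side effect score as listed in the training data of the Drug Induced Liver Injury Prediction System (DILIps)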;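 as to HepSE cholecystitis: Cholecystitis-related hepatic side effect score drawn from the DILIps (drug-induced liver injury prediction) training data set; call rule not given here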;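 as to HepSE hepatic necrosis: score of hepatic side effects for hepatic necrosis, drawn from the training data of DILIps, a prediction system for drug-induced liver injury; call rule not given here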;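 as to HepSE hepatomegaly: hepatic side effect score for hepatomegaly, taken from the training set of the DILIps drug-induced liver injury prediction system; call rule not given here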; as to HepSE liver disease: call rule not given here;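 as to HepSE liver fatty: hepatic side effect score for fatty liver, taken from the DILIps training set for predicting drug-induced liver injury; call rule not given here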
Hepatotoxicity [5] = system: Hepatotoxicity; remark: listed apart in the source; as to HepSE liver disease: call rule not given here
Hepatotoxicity [6] = system: Hepatotoxicity; remark: listed apart in the source; as to HepSE liver disease: call rule not given here
Hepatotoxicity [7] = system: Hepatotoxicity; remark: listed apart in the source
Hepatotoxicity [8] = system: Hepatotoxicity; remark: listed apart in the source
Hepatotoxicity [9] = system: Hepatotoxicity; remark: listed apart in the source
Hepatotoxicity [10] = system: Hepatotoxicity; remark: listed apart in the source
Hepatotoxicity [11] = system: Hepatotoxicity; remark: listed apart in the source
Hepatotoxicity [12] = system: Hepatotoxicity; remark: listed apart in the source
Hepatotoxicity [13] = system: Hepatotoxicity; remark: listed apart in the source
Hepatotoxicity [14] = system: Hepatotoxicity; remark: listed apart in the source

SMILES	HepSE_cholecystitis (Hepatotoxicity [1])	HepSE_hepatic necrosis (Hepatotoxicity [2])	HepSE_hepatomegaly (Hepatotoxicity [3])	HepSE_Combined Scores (Hepatotoxicity [4])	HepSE_liver disease (Hepatotoxicity [5])	HepSE_hepatitis (Hepatotoxicity [6])	HepSE_liver fatty (Hepatotoxicity [7])	HepSE_cholelithiasis (Hepatotoxicity [8])	HepSE_elevated liver function tests (Hepatotoxicity [9])	HepSE_hepatic failure (Hepatotoxicity [10])	HepSE_liver function tests abnormal (Hepatotoxicity [11])	HepSE_bilirubinemia (Hepatotoxicity [12])	HepSE_jaundice (Hepatotoxicity [13])	HepSE_cirrhosis (Hepatotoxicity [14])
CN1C(=O)CC(C)(c2ccccc2)C1=O (configuration not stated) [METHSUXIMIDE]	0	0	0	0	0	0	0	0	0	0	0	0	0	0
CN1C(CCl)Nc2cc(Cl)c(S(N)(=O)=O)cc2S1(=O)=O (configuration not stated) [METHYCLOTHIAZIDE]	0	0	0	1	0	0	0	0	0	0	0	0	1	0
COC(=O)CCC(=O)CN [METHYL AMINOLEVULINATE]	0	0	0	0	0	0	0	0	0	0	0	0	0	0
C[C@](N)(Cc1ccc(O)c(O)c1)C(=O)O [METHYLDOPA]	0	0	0	3	0	1	0	0	0	0	1	0	1	0
CC[C@@H](CO)NC(=O)[C@@H]1C=C2c3cccc4[nH]cc(c34)C[C@H]2N(C)C1 [METHYLERGONOVINE]	0	0	0	0	0	0	0	0	0	0	0	0	0	0
COC(=O)C(c1ccccc1)C1CCCCN1 (configuration not stated) [METHYLPHENIDATE]	0	0	0	1	0	0	0	0	0	0	1	0	0	0
C[C@H]1C[C@@H]2[C@H]([C@@H](O)C[C@@]3(C)[C@H]2CC[C@]3(O)C(=O)CO)[C@@]2(C)C=CC(=O)C=C12 [METHYLPREDNISOLONE]	0	0	0	0	0	0	0	0	0	0	0	0	0	0
C[C@]12CCC(=O)C=C1CC[C@@H]1[C@@H]2CC[C@@]2(C)[C@H]1CC[C@]2(C)O [METHYLTESTOSTERONE]	0	0	0	1	0	0	0	0	0	0	0	0	1	0
CC[C@@H](CO)NC(=O)[C@@H]1C=C2c3cccc4c3c(cn4C)C[C@H]2N(C)C1 [METHYSERGIDE]	0	0	0	0	0	0	0	0	0	0	0	0	0	0
CC(=O)Oc1c(C)cc(OCC(O)CNC(C)C)c(C)c1C (configuration not stated) [METIPRANOLOL]	0	0	0	0	0	0	0	0	0	0	0	0	0	0
CCN(CC)CCNC(=O)c1cc(Cl)c(N)cc1OC [METOCLOPRAMIDE]	0	0	0	1	0	0	0	0	0	0	0	0	1	0
Cc1ccccc1N1C(=O)c2cc(S(N)(=O)=O)c(Cl)cc2NC1C (configuration not stated) [METOLAZONE]	0	0	0	2	0	1	0	0	0	0	0	0	1	0
COCCc1ccc(OCC(O)CNC(C)C)cc1 (configuration not stated) [METOPROLOL]	0	0	0	2	0	1	0	0	0	0	0	0	1	0
